{"source": "patent US20050054667A1", "about": "“Method of treating or inhibiting anti-arrhythmic events in male human patients” (Solvay Pharmaceuticals GmbH, priority 2003, published 2005)", "key": {"human patients": {"system": "human patients", "experiment": "Clinical safety and tolerability of intravenous tedisamil (TdP, safety issues)", "assay_type": "in vivo", "experimental": "(§1) Secondary efficacy objectives were to determine the percentage of human patients remaining in sinus rhythm at 2.5 hours after initiation of the intravenous infusion of tedisamil versus placebo; to determine the percentage of human patients remaining in sinus rhythm at 24 hours after initiation of the intravenous infusion of tedisamil versus placebo; to determine the time to conversion after the start of the infusion of tedisamil versus placebo; and to determine the dose- and plasma concentration-response relationships of tedisamil versus placebo. Safety objective: determining the safety and tolerability of tedisamil versus placebo.\nPhysical examination, ECG, 24-hour Holter monitoring, vital signs, laboratory evaluations and adverse events."}, "[1]": {"system": "human patients with atrial flutter", "experiment": "Phase II clinical study: conversion of atrial flutter to normal sinus rhythm (NSR) by intravenous tedisamil", "assay_type": "in vivo", "conditions": "ITT sample, DC cardioversion excluded", "experimental": "(§2) This first clinical study in humans was a Multi-Center, Double-Blind, Randomized, Placebo-Controlled, Sequential Ascending Dose Groups Study to evaluate the Efficacy and Safety of Intravenous Tedisamil in the Rapid Conversion to Normal Sinus Rhythm in Patients with Atrial Fibrillation or Flutter. The active ingredient used was tedisamil dihydrochloride. The study was designed as a phase II study and executed in 35 to 40 centers in 3 to 4 countries. Study duration: Screening: up to 48 hours; treatment (in-patient): single 30-minute infusion; safety follow up: 24 hours (in-patient) with continuous telemetry and 28 day safety follow up.\nas §1\n(§3) The following methodology for the study in humans was applied: A multi-center, double-blind, randomized, placebo-controlled, sequential ascending dose groups study to evaluate the efficacy and safety of intravenous tedisamil versus placebo. The study drug was infused over 30 minutes, receiving half the dose within 10 minutes and half the dose within the remaining 20 minutes The first patient group received 0.4 mg/kg of body weight, infused as 0.2 mg/kg of body weight within 10 minutes, continued with 0.2 mg/kg of body weight infused within 20 minutes. The next higher dose 0.6 mg/kg of body weight (0.3 mg/kg of body weight infused over 10 min, continued with 0.3 mg/kg of body weight infused over 20 minutes) was only administered after the initial dose has been assessed (blinded) and found to be safe. A third stage may be added with a higher dose. Tedisamil blood concentrations were assessed during the infusion (at 10 and 30 minutes), at conversion to normal sinus rhythm, at recurrence and 24 hours after start of infusion.\n(§4) The criteria for patient inclusion in the study was atrial fibrillation or flutter with a duration of more than 3 hours and less than 48 hours, occurring as a first or recurrent episode.\n• Tedisamil (0.4 mg/kg body weight) • Tedisamil (0.6 mg/kg body weight) Both dosages were given as an intravenous regimen. Reference Therapy, Dose and Mode of Administration: […]\nAll efficacy variables were evaluated separately for human patients with atrial fibrillation and human patients with atrial flutter. […]"}, "[2]": {"system": "human patients with atrial fibrillation", "experiment": "Phase II clinical study: conversion of recent onset atrial fibrillation to normal sinus rhythm (NSR) by intravenous tedisamil", "assay_type": "in vivo", "conditions": "ITT sample, DC cardioversion excluded", "experimental": "as §2, §1, §3, §4\n(§5) • Tedisamil (0.4 mg/kg body weight) • Tedisamil (0.6 mg/kg body weight) Both dosages were given as an intravenous regimen. Reference Therapy, Dose and Mode of Administration:\n(§6) The total infusion time is 30 minutes, with half the dose infused within 10 minutes, and half the dose infused within the remaining 20 minutes.\n(§7) Primary efficacy: the percentage of human patients converted to normal sinus rhythm (for at least 60 seconds) at any time within 2.5 hours after the initiation of the infusion of study drug.\n(§8) All efficacy variables were evaluated separately for human patients with atrial fibrillation and human patients with atrial flutter. Percentages of conversion were compared among treatment groups using a logistic regression model with factors for treatment group and center. Times to conversion were compared among treatment groups using a Cox proportional hazards model with factors for treatment group and center. Dose-response and concentration-response relationships were examined using descriptive statistics."}, "[3]": {"system": "Subjects with Recent Onset Atrial Fibrillation or Flutter", "experiment": "Phase III clinical study: rapid conversion to NSR by intravenous tedisamil sesquifumarate", "assay_type": "in vivo, human", "conditions": "active ingredient tedisamil sesquifumarate", "experimental": "This second clinical study in humans was a Multi-Center, Double-Blind, Randomized, Placebo-Controlled, Parallel Design Study to evaluate the Efficacy and Safety of Intravenous Tedisamil Sesquifumarate in the Rapid Conversion to Normal Sinus Rhythm in Subjects with Recent Onset Atrial Fibrillation or Flutter.\nThe active ingredient used was tedisamil sesqifumarate. […] Study duration: Screening: up to 48 hours; treatment (in-patient): single 30-minute infusion; safety follow up: 24 hours (in-patient) with continuous telemetry and 28 day safety follow up. […]"}, "[4]": {"system": "Patients with Atrial Fibrillation or Flutter", "experiment": "Phase II clinical study: conversion to NSR, overall (atrial fibrillation or flutter)", "assay_type": "in vivo, human", "conditions": "for Conversion to NSR at any time within 2.5 hrs after start of infusion: Overall (fibrillation + flutter), ITT sample, DC cardioversion excluded", "experimental": "as §2, §1, §3, §4, §5, §6, §7, §8"}, "[5]": {"conditions": "female, 0.6 mg/kg i.v. 30-min infusion"}, "[6]": {"conditions": "male, 0.4 mg/kg i.v. 30-min infusion"}, "[7]": {"conditions": "male, 0.6 mg/kg i.v. 30-min infusion"}, "[8]": {"conditions": "female, 0.4 mg/kg i.v. 30-min infusion"}}, "data": [{"smiles": "C1CCC2(C1)C1CN(CC3CC3)CC2CN(CC2CC2)C1", "note": "[Tedisamil, N,N′-dicyclopropyl-methyl-9,9-tetramethylen-3,7-diazabicyclo[3,3,1]nonane]", "values": [{"measurement": "Observed TdP (Torsade de Point), distribution by gender", "setting": "human patients; 30 min infusion regimen", "value": "Almost all observed TdP (Torsade de Point) in 30 min regimen were in female human patients"}, {"measurement": "Safety issues, male vs female patients", "setting": "human patients; First (Phase II) study", "value": "fewer safety issues than female human patients"}, {"measurement": "TdP in male human patients", "setting": "human patients; high dosage on 0.72 in 3114 study", "value": "Only one human patient showed TdP"}, {"measurement": "Conversion to NSR at any time within 2.5 hrs after start of infusion (patients converted/total)", "setting": "[1]; female, 0.4 mg/kg i.v. 30-min infusion, percentage not given", "value": "0/2"}, {"measurement": "Conversion to NSR at any time within 2.5 hrs after start of infusion", "setting": "[1]; [5]", "value": "2/6 (33.3%)"}, {"measurement": "Conversion to NSR at any time within 2.5 hrs after start of infusion", "setting": "[1]; [6]", "value": "1/7 (14.3%)"}, {"measurement": "Conversion to NSR at any time within 2.5 hrs after start of infusion", "setting": "[1]; [7]", "value": "1/5 (20.0%)"}, {"measurement": "Conversion to NSR at any time within 2.5 hrs after start of infusion", "setting": "[2]; [8]", "value": "6/17 (35.3%)"}, {"measurement": "Conversion to NSR at any time within 2.5 hrs after start of infusion", "setting": "[2]; [5]", "value": "6/16 (37.5%)"}, {"measurement": "Conversion to NSR at any time within 2.5 hrs after start of infusion", "setting": "[2]; female, age <65 yrs, 0.4 mg/kg i.v.", "value": "2/5 (40.0%)"}, {"measurement": "Conversion to NSR at any time within 2.5 hrs after start of infusion", "setting": "[2]; female, age <65 yrs, 0.6 mg/kg i.v.", "value": "1/3 (33.3%)"}, {"measurement": "Conversion to NSR at any time within 2.5 hrs after start of infusion", "setting": "[2]; female, age >=65 yrs, 0.4 mg/kg i.v.", "value": "4/12 (33.3%)"}, {"measurement": "Conversion to NSR at any time within 2.5 hrs after start of infusion", "setting": "[2]; female, age >=65 yrs, 0.6 mg/kg i.v.", "value": "5/13 (38.5%)"}, {"measurement": "Conversion to NSR at any time within 2.5 hrs after start of infusion", "setting": "[2]; [6]", "value": "18/35 (51.4%)"}, {"measurement": "Conversion to NSR at any time within 2.5 hrs after start of infusion", "setting": "[2]; [7]", "value": "18/26 (69.2%)"}, {"measurement": "Conversion to NSR at any time within 2.5 hrs after start of infusion", "setting": "[2]; male, age <65 yrs, 0.4 mg/kg i.v.", "value": "10/20 (50.0%)"}, {"measurement": "Conversion to NSR at any time within 2.5 hrs after start of infusion", "setting": "[2]; male, age <65 yrs, 0.6 mg/kg i.v.", "value": "13/18 (72.2%)"}, {"measurement": "Conversion to NSR at any time within 2.5 hrs after start of infusion", "setting": "[2]; male, age >=65 yrs, 0.4 mg/kg i.v.", "value": "8/15 (51.4%)"}, {"measurement": "Conversion to NSR at any time within 2.5 hrs after start of infusion", "setting": "[2]; male, age >=65 yrs, 0.6 mg/kg i.v.", "value": "5/8 (62.5%)"}, {"measurement": "Gender difference related to efficacy (conversion rate, male vs female patients)", "setting": "[3]", "value": "higher conversion rate compared to women"}, {"measurement": "Effect of extension of infusion on conversion rates", "setting": "[4]; Extension of infusion beyond the times indicated (30 minutes)", "value": "did not produce higher conversion rates"}, {"measurement": "Gender difference related to efficacy (conversion rate, male vs female patients)", "setting": "[4]; First (Phase II) study, active ingredient tedisamil dihydrochloride", "value": "higher conversion rate compared to women"}, {"measurement": "Conversion to NSR at any time within 2.5 hrs after start of infusion", "setting": "[4]; [8]", "value": "6/19 (31.6%)"}, {"measurement": "Conversion to NSR at any time within 2.5 hrs after start of infusion", "setting": "[4]; [5]", "value": "8/22 (36.4%)"}, {"measurement": "Conversion to NSR at any time within 2.5 hrs after start of infusion", "setting": "[4]; [6]", "value": "19/42 (45.2%)"}, {"measurement": "Conversion to NSR at any time within 2.5 hrs after start of infusion", "setting": "[4]; [7]", "value": "19/31 (61.3%)"}]}]}
